Assays:
NGFβ = experiment: qPCR analysis of NGFβ mRNA in cultured mouse hippocampal neurons; assay type: cell-based; conditions: 10 μM, vs vehicle
Protocol: (§1) C57B1/6 or CD1 mouse embryonic (E17.5) hippocampal neurons were purchased from QBM Cell Science (University of Ottawa, Ontario, Canada). Neurons were cultured on poly-D-lysine coated 96 or 24 well plates in serum free Neurobasal medium supplemented with 2% B27, 500 μM L-glutamine, and 1 mM pyruvate. Cells were plated at a density of 20,000 per well on 96 well plates (for neurite outgrowth assays), and at 100,000 per well on […] (for qPCR analysis). For neurite outgrowth assays, neurons were cultured for 2 days and then stimulated for 24 hours. For gene-expression assays, neurons were grown for 8 days and then stimulated with HT-2157 or Vehicle.
(§2) RNA was isolated from cultured neurons at the indicated timepoint after HT-2157 treatment. Per well, one RNA preparation was performed using the QIAgen RNeasy kit (Qiagen) according to the manufacturer's specifications. cDNA was generated using TaqMan Reverse transcriptase kit (Applied Biosystems). 2 real-time PCR reactions per RNA/cDNA replication were performed using the ABI prism and SDS 2.1 software. ABI assays on demand (Applied Biosystems) were used to test the mRNA levels of BDNF, NGFβ, and Hes5. The average CT value for each cDNA sample was determined. Data was then normalized to TATA binding protein (TBP) and ΔCT values were determined. mRNA levels were normalized to a vehicle (0.2% DMSO) treated control group.

BDNF = experiment: qPCR analysis of BDNF mRNA in cultured mouse hippocampal neurons; assay type: cell-based; conditions: 10 μM, vs vehicle
Protocol: as §1, §2

[1] = system: PC12 sub-clone, Neuroscreen-1 (NS-1) cells; experiment: Neurite outgrowth assay in NS-1 cells (Example 1); assay type: cell-based; conditions: NS-1 cells with 200 ng/mL NGF, fixed 24 hr post treatment, various concentrations; dose-dependent
Protocol: PC12 sub-clone, Neuroscreen-1 (NS-1) cells were plated into collagen I-coated 96 well plate (BD BioCoat) at 5,000 cells per well in RPMI complete medium with 200 ng/mL NGF. 48 hr later NS-1 cells were treated with HT-2157 at various concentrations and were subsequently fixed 24 hr post treatment.
(§3) Following fixation, Cellomics's Neurite Outgrowth reagent kit was used to label cells by a primary antibody specific for neurons. The cell nuclei were labeled by Hoechst 33342. Fluorescently labeled cells were then imaged and analyzed using Cellomics's Neurite Outgrowth and Extended Neurite Outgrowth Bioapplications on the ArrayScan HCS Reader. Images for quantitative HCS analysis were collected on the ArrayScan HCS Reader using a 10× or a 20× microscope objective.

5-HT = conditions: Rowley et al. Br J Pharmacol 2005, P127; cited from earlier work
GalR3 = experiment: Western blot analysis of GalR3 expression in NS1 cells; assay type: cell-based; conditions: 24 hours after treatment
Protocol: Cultured NS1 cells were homogenized in RIPA buffer (Upstate Biotechnology) containing proteinase inhibitors (Roche). Protein concentrations were determined using the Biorad DC protein assay kit (Biorad). 20 μg of protein-lysate were separated by SDS poly-acrylamide gel electrophoresis (SDS-PAGE) and blotted onto nylon membranes. Western blots were blocked with 5% non-fat dry milk in Tris-buffered saline containing 0.05% Tween 20 (TBS-T) and the primary antibodies applied at 4° Celsius over night. Blots were probed with horseradish peroxidase (HRP) coupled secondary antibodies at room temperature for 1 h, and developed using the SuperSignal® West Pico Chemiluminescent Substrate (Pierce). We used a polyclonal antibody against GalR3 (Alpha Diagnostics). Blots were normalized to β-actin (Sigma).

NS1 cells = experiment: Neurite outgrowth assay in NS1 cells (Example 2); assay type: cell-based; conditions: 3 μM and 10 μM
Protocol: Neuroscreen 1 (NS1) Cells (Cellomics Inc.) were cultured on collagen type I coated 75 cm^2 plastic flasks (Biocoat, Becton Dickinson) in a humidified incubator at 37° C. in 5% CO2. Cells were cultured in RPMI complete cell culture medium (Cambrex) supplemented with 10% heat-inactivated horse serum (Invitrogen), 5% heat-inactivated fetal bovine serum (Cellgro), and 2 mM L-glutamine (Cambrex). For expansion, the cells were trypsinized and split at 80% confluence. The cell culture media was changed every 2 to 3 days.
NS1 cells were stimulated with nerve growth factor to induce differentiation into a neuronal phenotype. NS1 cells were harvested as if they were being passaged and then counted using a Coulter counter (Becton Dickinson Coulter Z1). Cells were seeded in 96-well collagen I coated plates at a density of 2000 cells per well in volume of 200 μl. RPMI media was supplemented with 200 ng/ml nerve growth factor (NGFβ, Sigma). NS1 cells were incubated for 72 hours to allow differentiation to a neuronal phenotype. NGFβ was then diluted to 50 ng/ml and the cells were treated with siRNA or HT-2157, respectively.
(§4) Neurite outgrowth assays were performed using the Cellomics Arrayscan II Vti HCS scanner. Cells were stained using the HitKit™ HCS reagent kit (Cellomics) according to the manufactures specifications. The assay is based on immunofluorescence using an antibody that has been validated to specifically label both neurites and neuronal cell bodies. Briefly, cells were fixed in 3.7% formaldehyde and nuclei stained with Hoechst dye. Cells were then washed in neurite outgrowth buffer and neurites stained with Cellomics' proprietary primary antibody for neurite outgrowth high content screening. After 1 hour of incubation with the primary antibody, the cells were washed again and then incubated with fluorescently labeled secondary antibody solution for 1 hour. Antibody-stained 96-well plates were store at 4° C. in the dark until scanning. Plates were scanned using Cellomics ArrayScan II Vti HCS scanner. The neurite outgrowth assay uses two channels to carry out the scan. Channel 1 detects the Hoechst Dye and is used by the software to identify cells and for automated focusing. Channel 2 detects the FITC fluorescence of the secondary antibody and is used by the software to calculate all data generated in reference to neurites.

5-HT transmission = conditions: Rowley et al. Br J Pharmacol 2005, P125; cited from earlier work
[2] = system: cryopreserved mouse hippocampal neurons; experiment: Neurite outgrowth assay in cryopreserved mouse hippocampal neurons (Example 1); assay type: cell-based; conditions: fixed 48 hr post treatment, various concentrations
Protocol: The cryopreserved mouse hippocampal neurons were plated into poly-L-lysine-coated 96 well plate (BD BioCoat) at 35,000 cells per well in Neurobasal/B27 medium (Invitrogen). 24 hr later the neurons were treated with HT-2157 at various concentrations and were subsequently fixed 48 hr post treatment.
as §3

Hes5 [3] = experiment: qPCR analysis of Hes5 expression in NS-1 cells; assay type: cell-based
Protocol: NS-1 cells were plated into collagen I-coated 6 well plate (BD BioCoat) at 150,000 cells per well. 48 hr post NGF treatment at 200 ng/mL NS-1 cells were treated with HT-2157 for 2 hr, 4 hr or 24 hr at concentrations as indicated followed by RNA isolation using Ambion's RNAqueous-4PCR kit. Reverse transcription reactions were performed with Taqman reverse transcription reagents (Applied Biosystems). qPCR was performed on a 7900 real-time PCR machine using Optical 96 well reaction plates (Applied Biosystems). Expression levels were normalized to mouse TBP transcript levels.

Hes5 [4] = experiment: qPCR analysis of Hes5 mRNA in cultured mouse hippocampal neurons; assay type: cell-based; parameters: dose or concentration left out as unconfirmed; conditions: vs vehicle
Protocol: as §1, §2

[5] = system: cultured mouse hippocampal neurons; experiment: Neurite outgrowth assay in cultured mouse hippocampal neurons (Example 2); assay type: cell-based; conditions: 100 ng/ml for 24 hours
Protocol: as §1, §4

Molecule | NGFβ mRNA levels (NGFβ) | BDNF mRNA levels (BDNF) | neurite branch point [1] | neurite count [1] | neurite length [1] | extracellular levels of 5-HT in various brain regions (5-HT) | Expression of GalR3 (GalR3) | average neurite length per cell (NS1 cells) | number of neurite branch points per cell (NS1 cells) | number of neurites per cell (neurite count) (NS1 cells) | total neurite length per cell (NS1 cells) | inhibitory effect of Galanin on 5-HT transmission (5-HT transmission) | neurite length [2] | mRNA levels of Hes5 (Hes5 [3]; NS1 cells, 2 hours and 4 hours after treatment with 3 or 10 μM, compared to vehicle) | Hes5 mRNA (Hes5 [3]; NS1 cells, 24 hours after treatment) | Hes5 expression (Hes5 [3]; NS-1 cells, treatment at 2 hr and 4 hr, time- and dose-dependent) | Hes5 mRNA levels (Hes5 [4]) | branch points [5] | neurite length [5] | number of neurites per cell [5]
O=C1C(=Nc2cccc(C(F)(F)F)c2)c2ccccc2N1c1ccccc1 [HT-2157] | significantly increased | significantly increased | increase | increase | increase | increase | not affected | increase | increase | increase | increase | antagonize | significantly increased | reduced | returned to baseline levels | down-regulated | significantly reduced |  |  | 
NGFβ: nerve growth factor β, neurotrophin (Sigma) |  |  |  |  |  |  |  |  |  |  |  |  |  |  |  |  |  | increased | increased | increased

From patent publication US20080039496A1, “Method of Modulating Neurite Outgrowth by the use of a Galanin-3 Receptor Antagonist” (priority 2006, published 2008)
